In US12540137B2, “N-1 branched alkyl ether substituted imidazo[4,5-c]quinoline compounds, compositions, and methods” (Solventum Intellectual Properties Company, priority 2018, dated 2026):

Columns and labels:
human TLR8 = molecular target: T1, human TLR8 (Homo sapiens, UniProt Q9NR97); assay: TLR activation, HEK-BLUE-hTLR8 SEAP reporter cells; format: cell-based; conditions: 16-20 hours, SEAP response at least 2× vehicle control, tested 0.01-30 micromolar
T1 construct: host or cells: HEK293 (HEK-BLUE-hTLR8)
T1 sequence (Q9NR97 27-1041): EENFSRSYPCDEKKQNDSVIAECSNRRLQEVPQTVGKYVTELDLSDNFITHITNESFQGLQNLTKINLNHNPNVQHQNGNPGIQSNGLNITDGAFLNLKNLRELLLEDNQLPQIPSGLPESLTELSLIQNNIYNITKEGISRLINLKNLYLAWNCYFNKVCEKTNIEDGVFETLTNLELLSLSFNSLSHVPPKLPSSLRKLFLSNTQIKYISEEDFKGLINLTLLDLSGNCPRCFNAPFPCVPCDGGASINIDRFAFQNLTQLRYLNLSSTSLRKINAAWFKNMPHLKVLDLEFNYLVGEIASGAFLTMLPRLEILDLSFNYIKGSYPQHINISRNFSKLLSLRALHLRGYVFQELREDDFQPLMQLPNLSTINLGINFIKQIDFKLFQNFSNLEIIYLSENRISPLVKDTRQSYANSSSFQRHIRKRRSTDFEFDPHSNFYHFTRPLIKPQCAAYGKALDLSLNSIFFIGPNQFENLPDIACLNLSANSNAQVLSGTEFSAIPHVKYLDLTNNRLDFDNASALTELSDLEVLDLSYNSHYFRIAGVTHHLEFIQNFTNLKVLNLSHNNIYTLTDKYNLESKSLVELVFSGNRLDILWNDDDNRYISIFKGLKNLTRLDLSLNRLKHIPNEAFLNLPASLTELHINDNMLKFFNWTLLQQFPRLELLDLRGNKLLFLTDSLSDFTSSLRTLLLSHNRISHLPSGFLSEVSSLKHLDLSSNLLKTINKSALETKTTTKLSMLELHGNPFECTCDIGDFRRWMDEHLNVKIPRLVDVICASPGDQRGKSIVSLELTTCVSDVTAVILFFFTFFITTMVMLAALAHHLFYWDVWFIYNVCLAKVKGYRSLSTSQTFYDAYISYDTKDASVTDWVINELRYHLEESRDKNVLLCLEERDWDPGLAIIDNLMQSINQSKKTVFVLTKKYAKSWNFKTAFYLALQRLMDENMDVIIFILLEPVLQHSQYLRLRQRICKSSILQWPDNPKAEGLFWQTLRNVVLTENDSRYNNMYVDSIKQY
Description: (§1) HEK-BLUE-hTLR7 or hTLR8 reporter cells were obtained from InvivoGen, San Diego, CA. According to the manufacturer's description, these reporter cells were prepared by co-transfection of HEK293 cells with an inducible secreted embryonic alkaline phosphatase (SEAP) reporter gene and either the human TLR7 or TLR8 gene. The SEAP reporter gene was placed under the control of an IFN−β minimal promoter fused to five NF-κB and AP-1-binding sites. In the presence of a TLR ligand, activation of NF-κB and AP-1 occurs, resulting in a corresponding increase in SEAP levels.
(§2) In the assay, the HEK cells were grown and maintained using standard cell culture techniques in a growth medium that contained Dulbecco's Modified Eagle Medium (ThermoFisher Scientific Incorporated, Waltham, MA) supplemented with 1% penicillin/streptomycin and 10% heat-inactivated Gibco fetal bovine serum (ThermoFisher Scientific). Each compound was solubilized in DMSO to create a 3 mM stock solution. The stock solution was then further diluted with the growth medium to prepare serial dilutions. Each test compound was tested at a concentration of 30, 10, 3.3, 1.1, 0.37, 0.12, 0.04, and 0.01 micromolar using a 96-well format with 5×10^4 cells and 200 microliters of growth medium per well.
(§3) For each compound, hTLR7, hTLR8, and their respective null control HEK cells were screened. DMSO serially diluted into the growth medium served as the vehicle control. Cell culture supernatants containing the SEAP reporter were collected after an incubation period of 16-20 hours in a cell culture incubator (37° C. and 5% CO2), and either analyzed immediately or stored at −80° C. SEAP levels were measured using the colorimetric enzyme assay (QUANTI-BLUE (InvivoGen) according to manufacturer's instructions.
(§4) Specifically, the minimum effective concentration of each compound (micromolar) was determined as the lowest concentration of the compound that produced a SEAP expression response at least 2× greater than that observed with the vehicle control wells.

human TLR7 = molecular target: T2, human TLR7 (Homo sapiens, UniProt Q9NYK1); assay: TLR activation, HEK-BLUE-hTLR7 SEAP reporter cells; format: cell-based; conditions: 16-20 hours, SEAP response at least 2× vehicle control, tested 0.01-30 micromolar
T2 construct: host or cells: HEK293 (HEK-BLUE-hTLR7)
T2 sequence (Q9NYK1 27-1049): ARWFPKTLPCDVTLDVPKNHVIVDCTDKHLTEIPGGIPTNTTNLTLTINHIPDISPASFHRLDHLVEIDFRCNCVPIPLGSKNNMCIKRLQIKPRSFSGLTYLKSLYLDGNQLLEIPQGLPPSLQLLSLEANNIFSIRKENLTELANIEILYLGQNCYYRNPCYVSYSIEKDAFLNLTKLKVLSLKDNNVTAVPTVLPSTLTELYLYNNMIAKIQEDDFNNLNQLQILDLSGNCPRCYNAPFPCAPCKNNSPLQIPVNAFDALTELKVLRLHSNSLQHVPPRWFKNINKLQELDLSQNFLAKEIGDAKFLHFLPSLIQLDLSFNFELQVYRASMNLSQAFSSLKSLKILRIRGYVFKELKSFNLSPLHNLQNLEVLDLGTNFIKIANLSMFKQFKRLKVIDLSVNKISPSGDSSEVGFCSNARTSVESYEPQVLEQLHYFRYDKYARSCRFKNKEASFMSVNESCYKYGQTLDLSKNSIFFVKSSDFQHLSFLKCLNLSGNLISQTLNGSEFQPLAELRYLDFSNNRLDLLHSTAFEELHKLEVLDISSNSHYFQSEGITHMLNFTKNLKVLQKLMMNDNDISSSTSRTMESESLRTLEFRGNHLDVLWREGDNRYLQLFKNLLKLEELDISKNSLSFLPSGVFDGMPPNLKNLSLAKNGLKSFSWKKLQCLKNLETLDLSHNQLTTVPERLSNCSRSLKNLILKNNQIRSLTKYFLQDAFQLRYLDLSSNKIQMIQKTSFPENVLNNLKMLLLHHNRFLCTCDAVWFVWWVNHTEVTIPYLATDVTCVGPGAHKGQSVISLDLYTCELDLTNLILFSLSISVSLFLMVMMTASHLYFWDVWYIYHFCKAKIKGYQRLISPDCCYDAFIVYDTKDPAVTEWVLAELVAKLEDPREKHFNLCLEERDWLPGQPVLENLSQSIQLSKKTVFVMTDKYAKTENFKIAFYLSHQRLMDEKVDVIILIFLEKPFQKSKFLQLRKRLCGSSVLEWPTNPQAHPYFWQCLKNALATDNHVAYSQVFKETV
Description: as §1, §2, §3, §4

MEC to Produce TLR Activation TLR 8 (human TLR8): 30 µM | MEC to Produce TLR Activation TLR 7 (human TLR7): 0.04 µM
SMILES: CCOC[C@@H](n1cnc2c(N)nc3ccccc3c21)C1(O)CCCC1 [Example 14, 1-[(1R)-1-(4-aminoimidazo[4,5-c]quinolin-1-yl)-2-ethoxy-ethyl]cyclopentanol]
